Test results as given in paper PMC11642016 (International Journal of Molecular Sciences, 2024).
Read-outs that look alike come from different tables or passages of the source.

Columns and labels:
Fadu cells = assay: CellTiter-Glo luminescent cell viability assay, Fadu; details: 72 h, mean ± SD, n = 2; for Cell Viability (% of Control) 2.8 µM / Cell Viability (% of Control) 8.3 µM / Cell Viability (% of Control) 25 µM: Fadu; for viability at 2.8 µM / viability at 8.3 µM / viability at 25 µM: Homo sapiens, FaDu; for viability at 2.8 µM: read-out: Cell Viability (% of Control) 2.8 µM, Fadu; for viability at 8.3 µM: read-out: Cell Viability (% of Control) 8.3 µM, Fadu; for viability at 25 µM: read-out: Cell Viability (% of Control) 25 µM, Fadu
PANC-1 cells = assay: CellTiter-Glo luminescent cell viability assay, PANC-1; details: 72 h, mean ± SD, n = 2; for Cell Viability (% of Control) 2.8 µM / Cell Viability (% of Control) 8.3 µM / Cell Viability (% of Control) 25 µM: PANC-1; for viability at 2.8 µM / viability at 8.3 µM / viability at 25 µM: Homo sapiens, PANC-1, 72 h; for viability at 2.8 µM: read-out: Cell Viability (% of Control) 2.8 µM, PANC-1; for viability at 8.3 µM: read-out: Cell Viability (% of Control) 8.3 µM, PANC-1; for viability at 25 µM: read-out: Cell Viability (% of Control) 25 µM, PANC-1

Question: With `NCC#Cc1cccc(CN2C(=O)C3=C(CCN(Cc4cccc(-n5cc(-[c-]6cccc6)nn5)c4)C3)N3CCN=C23)c1.[Fe+2].c1cc[cH-]c1` [4a] as the molecule, how does the “Cell Viability (% of Control) 2.8 µM” value (Fadu cells; first-set screening) read?
Answer: Its value is 102 ± 1 % of Control.

Question: And the “Cell Viability (% of Control) 8.3 µM” value (Fadu cells; first-set screening)?
Answer: Its value is 77 ± 3 % of Control.

Question: And the “Cell Viability (% of Control) 25 µM” value (Fadu cells; first-set screening)?
Answer: The value was 0 ± 0 % of Control.

Question: And the “Cell Viability (% of Control) 2.8 µM” value (PANC-1 cells; first-set screening)?
Answer: The value was 91 ± 4 % of Control.

Question: What about the “Cell Viability (% of Control) 8.3 µM” value (PANC-1 cells; first-set screening) of the same molecule?
Answer: Its value is 73 ± 9 % of Control.

Question: And the “Cell Viability (% of Control) 25 µM” value (PANC-1 cells; first-set screening)?
Answer: Its value is 0 ± 0 % of Control.

Question: How did the viability at 2.8 µM (Fadu cells; first-set screening) turn out when `O=C1C2=C(CCN(Cc3cccc(-n4cc(-c5ccccc5)nn4)c3)C2)N2CCN=C2N1Cc1cccc(C#CCO)c1` [4d] was run?
Answer: Its viability at 2.8 µM is 37 ± 1%.

Question: What about the viability at 8.3 µM (Fadu cells; first-set screening) of the same molecule?
Answer: Its viability at 8.3 µM is 27 ± 3%.

Question: And the viability at 25 µM (Fadu cells; first-set screening)?
Answer: Its viability at 25 µM is 23 ± 3%.

Question: And the viability at 2.8 µM (PANC-1 cells; first-set screening)?
Answer: Its viability at 2.8 µM is 74 ± 3%.

Question: And the viability at 8.3 µM (PANC-1 cells; first-set screening)?
Answer: The viability at 8.3 µM was 60 ± 2%.

Question: What about the viability at 25 µM (PANC-1 cells; first-set screening) of the same molecule?
Answer: Its viability at 25 µM is 53 ± 8%.

Question: With `O=C1C2=C(CCN(Cc3ccc(-n4cc(-c5ccccc5)nn4)cc3)C2)N2CCN=C2N1Cc1ccc(F)cc1` [16f] as the molecule, how does the viability at 2.8 µM (Fadu cells; first-set screening) read?
Answer: The viability at 2.8 µM was 100 ± 1%.

Question: And the viability at 8.3 µM (Fadu cells; first-set screening)?
Answer: Its viability at 8.3 µM is 94 ± 1%.

Question: And the viability at 25 µM (Fadu cells; first-set screening)?
Answer: Its viability at 25 µM is 77 ± 4%.

Question: What about the viability at 2.8 µM (PANC-1 cells; first-set screening) of the same molecule?
Answer: Its viability at 2.8 µM is 81 ± 3%.

Question: And the viability at 8.3 µM (PANC-1 cells; first-set screening)?
Answer: Its viability at 8.3 µM is 68 ± 4%.

Question: And the viability at 25 µM (PANC-1 cells; first-set screening)?
Answer: The viability at 25 µM was 60 ± 1%.

Question: Which results are given for `NCC#Cc1cccc(CN2C(=O)C3=C(CCN(Cc4ccc(NC(=O)[c-]5cccc5)cc4)C3)N3CCN=C23)c1.[Fe+2].c1cc[cH-]c1` [23a]?
Answer: Cell Viability (% of Control) 2.8 µM (Fadu cells; second-set screening): 109 ± 10 % of Control; Cell Viability (% of Control) 8.3 µM (Fadu cells; second-set screening): 107 ± 7 % of Control; Cell Viability (% of Control) 25 µM (Fadu cells; second-set screening): 61 ± 20 % of Control; Cell Viability (% of Control) 2.8 µM (PANC-1 cells; second-set screening): 98 ± 7 % of Control; Cell Viability (% of Control) 8.3 µM (PANC-1 cells; second-set screening): 104 ± 10 % of Control; Cell Viability (% of Control) 25 µM (PANC-1 cells; second-set screening): 52 ± 55 % of Control

Question: Which viability at 2.8 µM (Fadu cells; second-set screening) does the source give for `NCC#Cc1cccc(CN2C(=O)C3=C(CCN(Cc4ccc(NC(=O)c5ccccc5)cc4)C3)N3CCN=C23)c1` [23b] here?
Answer: Its viability at 2.8 µM is 117 ± 11%.

Question: And the viability at 8.3 µM (Fadu cells; second-set screening)?
Answer: The viability at 8.3 µM was 108 ± 7%.

Question: What about the viability at 25 µM (Fadu cells; second-set screening) of the same molecule?
Answer: The viability at 25 µM was 77 ± 6%.

Question: What about the viability at 2.8 µM (PANC-1 cells; second-set screening) of the same molecule?
Answer: The viability at 2.8 µM was 113 ± 15%.

Question: What about the viability at 8.3 µM (PANC-1 cells; second-set screening) of the same molecule?
Answer: The viability at 8.3 µM was 106 ± 5%.

Question: And the viability at 25 µM (PANC-1 cells; second-set screening)?
Answer: The viability at 25 µM was 47 ± 39%.

Question: How did the “Cell Viability (% of Control) 2.8 µM” value (Fadu cells; second-set screening) turn out when `NCC#Cc1cccc(CN2C(=O)C3=C(CCN(Cc4ccc(C(=O)N[c-]5cccc5)cc4)C3)N3CCN=C23)c1.[Fe+2].c1cc[cH-]c1` [33a] was run?
Answer: Its value is 99 ± 2 % of Control.

Question: What about the “Cell Viability (% of Control) 8.3 µM” value (Fadu cells; second-set screening) of the same molecule?
Answer: Its value is 93 ± 2 % of Control.

Question: What about the “Cell Viability (% of Control) 25 µM” value (Fadu cells; second-set screening) of the same molecule?
Answer: The value was 9 ± 8 % of Control.

Question: And the “Cell Viability (% of Control) 2.8 µM” value (PANC-1 cells; second-set screening)?
Answer: Its value is 102 ± 9 % of Control.

Question: And the “Cell Viability (% of Control) 8.3 µM” value (PANC-1 cells; second-set screening)?
Answer: Its value is 107 ± 9 % of Control.

Question: And the “Cell Viability (% of Control) 25 µM” value (PANC-1 cells; second-set screening)?
Answer: Its value is 4 ± 5 % of Control.

Question: With `NCC#Cc1cccc(CN2C(=O)C3=C(CCN(Cc4ccc(C(=O)Nc5ccccc5)cc4)C3)N3CCN=C23)c1` [33b] as the molecule, how does the viability at 2.8 µM (Fadu cells; second-set screening) read?
Answer: The viability at 2.8 µM was 120 ± 9%.

Question: And the viability at 8.3 µM (Fadu cells; second-set screening)?
Answer: The viability at 8.3 µM was 115 ± 6%.

Question: What about the viability at 25 µM (Fadu cells; second-set screening) of the same molecule?
Answer: Its viability at 25 µM is 80 ± 11%.

Question: What about the viability at 2.8 µM (PANC-1 cells; second-set screening) of the same molecule?
Answer: Its viability at 2.8 µM is 102 ± 9%.

Question: What about the viability at 8.3 µM (PANC-1 cells; second-set screening) of the same molecule?
Answer: Its viability at 8.3 µM is 109 ± 5%.

Question: And the viability at 25 µM (PANC-1 cells; second-set screening)?
Answer: The viability at 25 µM was 71 ± 32%.

Question: How did the viability at 2.8 µM (Fadu cells; second-set screening) turn out when `NCC#Cc1cccc(CN2C(=O)C3=C(CCN(Cc4ccc(-n5cc(-c6cccc(F)c6)nn5)cc4)C3)N3CCN=C23)c1` [36a] was run?
Answer: Its viability at 2.8 µM is 105 ± 20%.

Question: What about the viability at 8.3 µM (Fadu cells; second-set screening) of the same molecule?
Answer: The viability at 8.3 µM was 6 ± 5%.

Question: What about the viability at 25 µM (Fadu cells; second-set screening) of the same molecule?
Answer: Its viability at 25 µM is 0%.

Question: What about the viability at 2.8 µM (PANC-1 cells; second-set screening) of the same molecule?
Answer: The viability at 2.8 µM was 116 ± 8%.

Question: And the viability at 8.3 µM (PANC-1 cells; second-set screening)?
Answer: The viability at 8.3 µM was 0%.

Question: What about the viability at 25 µM (PANC-1 cells; second-set screening) of the same molecule?
Answer: The viability at 25 µM was 0%.

Question: What does the source list for `NCC#Cc1cccc(CN2C(=O)C3=C(CCN(Cc4ccc(-n5cc(-c6ccc(F)cc6)nn5)cc4)C3)N3CCN=C23)c1` [36b]?
Answer: viability at 2.8 µM (Fadu cells; second-set screening): 114 ± 7%; viability at 8.3 µM (Fadu cells; second-set screening): 1 ± 1%; viability at 25 µM (Fadu cells; second-set screening): 0%; viability at 2.8 µM (PANC-1 cells; second-set screening): 116 ± 7%; viability at 8.3 µM (PANC-1 cells; second-set screening): 0%; viability at 25 µM (PANC-1 cells; second-set screening): 0%

Question: For `NCC#Cc1cccc(CN2C(=O)C3=C(CCN(Cc4ccc(-n5cc(-c6cc(F)cc(F)c6)nn5)cc4)C3)N3CCN=C23)c1` [36c], which viability at 2.8 µM (Fadu cells; second-set screening) is on record?
Answer: Its viability at 2.8 µM is 111 ± 10%.

Question: And the viability at 8.3 µM (Fadu cells; second-set screening)?
Answer: The viability at 8.3 µM was 5 ± 5%.

Question: And the viability at 25 µM (Fadu cells; second-set screening)?
Answer: Its viability at 25 µM is 0%.

Question: What about the viability at 2.8 µM (PANC-1 cells; second-set screening) of the same molecule?
Answer: Its viability at 2.8 µM is 111 ± 8%.

Question: What about the viability at 8.3 µM (PANC-1 cells; second-set screening) of the same molecule?
Answer: Its viability at 8.3 µM is 0%.

Question: What about the viability at 25 µM (PANC-1 cells; second-set screening) of the same molecule?
Answer: Its viability at 25 µM is 0%.

Question: With `NCc1cccc(CN2C(=O)C3=C(CCN(Cc4ccc(-n5cc(-[c-]6cccc6)nn5)cc4)C3)N3CCN=C23)c1.[Fe+2].c1cc[cH-]c1` [37a] as the molecule, how does the “Cell Viability (% of Control) 2.8 µM” value (Fadu cells; second-set screening) read?
Answer: Its value is 106 ± 10 % of Control.

Question: And the “Cell Viability (% of Control) 8.3 µM” value (Fadu cells; second-set screening)?
Answer: The value was 70 ± 20 % of Control.

Question: And the “Cell Viability (% of Control) 25 µM” value (Fadu cells; second-set screening)?
Answer: The value was 0 ± 0 % of Control.

Question: What about the “Cell Viability (% of Control) 2.8 µM” value (PANC-1 cells; second-set screening) of the same molecule?
Answer: Its value is 118 ± 4 % of Control.

Question: What about the “Cell Viability (% of Control) 8.3 µM” value (PANC-1 cells; second-set screening) of the same molecule?
Answer: Its value is 123 ± 5 % of Control.

Question: And the “Cell Viability (% of Control) 25 µM” value (PANC-1 cells; second-set screening)?
Answer: The value was 16 ± 8 % of Control.
